# Data as given in US20060247320A1, “Compounds for inhibiting KSP kinesin activity” (priority 2005, published 2006).
# Target: T1, KSP motor domain (Homo sapiens, UniProt P52732)
# T1 sequence (P52732 18-359 limits assumed): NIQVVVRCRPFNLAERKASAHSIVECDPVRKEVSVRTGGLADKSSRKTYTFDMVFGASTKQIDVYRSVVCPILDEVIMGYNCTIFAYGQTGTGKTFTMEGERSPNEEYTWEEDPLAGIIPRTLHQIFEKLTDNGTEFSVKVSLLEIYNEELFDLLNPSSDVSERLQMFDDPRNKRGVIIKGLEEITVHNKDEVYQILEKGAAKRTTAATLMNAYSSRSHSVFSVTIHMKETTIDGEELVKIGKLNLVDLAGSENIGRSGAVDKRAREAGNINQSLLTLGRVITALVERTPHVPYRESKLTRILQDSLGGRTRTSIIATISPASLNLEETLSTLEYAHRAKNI
# Experiment: biochemical
# Conditions: KSP inhibitory activity, end-point assay; class symbols (Table 1); read-out: IC50
row,SMILES,IC50 [nM]
1,"CC(C)(C)C1CCc2nc3sc(-c4ncc[nH]4)cc3cc2C1 (stereo not drawn) [Example 181, 6-tert-Butyl-2-(1H-imidazol-2-yl)-5,6,7,8-tetrahydrothieno[2,3-b]quinoline]",100 to 1000
2,"CC(C)(C)C1CCc2nc3sc(C#N)c(Cl)c3cc2C1 (stereo not drawn) [Example 111, 6-tert-Butyl-3-chloro-5,6,7,8-tetrahydrothieno[2,3-b]quinoline-2-carbonitrile]",> 10000
3,CC(C)(C)C1CCc2nc3sc(C(=O)N[C@H](CN)c4ccc([N+](=O)[O-])cc4)cc3cc2C1 (stereo partly drawn) [Example 215],< 100
4,"CC(C)(C)C1CCc2nc3sc(C(=O)N[C@H](CN)c4ccccc4)nc3cc2C1 (stereo partly drawn) [Example 225, 6-tert-butyl-5,6,7,8-tetrahydro-thiazolo[5,4-b]quinoline-2-carboxylic acid [2(S)-amino-1-phenyl-ethyl]-amide]",< 100
5,CC(C)(C)C1CCc2nc3sc(C(=O)N[C@H](CN)c4cccc([N+](=O)[O-])c4)cc3cc2C1 (stereo partly drawn) [Example 214],< 100
6,"CC(C)(C)C1CCc2nc3sc(C(=O)NCCN4CCOCC4)cc3cc2C1 (stereo not drawn) [Example 194, 6-(1,1-Dimethylethyl)-5,7,8-Tetrahydro-N-[2-(4-Morpholinyl)ethyl]thieno[2,3-b]quinoline-2-Carboxamide]",1000 to 10000
7,CC(C)(C)C1CCc2nc3sc(C(=O)NC(CO)CO)cc3cc2C1 (stereo not drawn) [Example 96],100 to 1000
8,"CC(C)(C)[C@@H]1CCc2nc3sc(C(=O)N[C@H](CN)c4cccc(NC(=O)c5ncco5)c4)cc3cc2C1 [Example 263, 6-tert-butyl-5,6,7,8-tetrahydrothieno[2,3-b]quinoline-2-carboxylic acid (2-amino-1-{3-[(oxazole-2-carbonyl)amino]phenyl}ethyl)amide]",< 100
9,COC(=O)[C@H]1CCCN1C(=O)c1cc2cc3c(nc2s1)CCC(C(C)(C)C)C3 (stereo partly drawn) [Example 89],> 10000
10,CC(C)(C)C1CCc2nc3sc(C(=O)N4CCC[C@@H]4C(=O)O)cc3cc2C1 (stereo partly drawn) [Example 88],> 10000
11,Cn1ccc(C(=O)Nc2cccc([C@@H](CN)NC(=O)c3cc4cc5c(nc4s3)CC[C@@H](C(C)(C)C)C5)c2)n1 [Example 239],< 100
12,"CC1Cc2nc3sc(C(N)=O)cc3cc2CC1C(C)(C)C (stereo not drawn) [Example 204, 6-tert-Butyl-7-methyl-5,6,7,8-tetrahydro-thieno[2,3,-b]quinoline-2-carboxylic acid amide]",100 to 1000
13,"CC(=O)Nc1cccc(C(CN)NC(=O)c2cc3cc4c(nc3s2)CCC(C(C)(C)C)C4)c1 (stereo not drawn) [Example 222, 6-tert-butyl-5,6,7,8-tetrahydrothieno[2,3-b]quinoline-2-carboxylic acid [1-(3-acetylaminophenyl)-2-aminoethyl]amide]",< 100
14,N#Cc1sc2nc3c(cc2c1N)CC(=O)CC3 [Example 53],> 10000
15,CC(C)(C)[C@@H]1CCc2nc3sc(C(=O)N[C@H](CN)c4cccc(NC(=O)c5nsc(Cl)c5Cl)c4)cc3cc2C1 [Example 253A],100 to 1000
16,"CC(C)(C)C1CCc2nc3sc(C(=O)N[C@H](CN)c4cccc(Br)c4)cc3cc2C1 (stereo partly drawn) [Example 210, 6-tert-butyl-5,6,7,8-tetrahydro-thieno[2,3-b]quinoline-2-carboxylic acid [(1S)-2-amino-1-(3-bromo-phenyl)-ethyl]-amide]",100 to 1000
17,N#Cc1sc2nc3c(cc2c1N)CC(C12CC4CC(CC(C4)C1)C2)CC3 (stereo not drawn) [Example 4],> 10000
18,CCC(C)(C)C1CCc2nc3sc(C#N)c(N)c3c(SC)c2C1 (stereo not drawn) [Example 54],> 10000
19,CC(C)(C)[C@@H]1CCc2nc3sc(C(=O)N[C@H](CN)c4cccc(NC(=O)c5nccnc5N)c4)cc3cc2C1 [Example 261],< 100
20,CCC(C1CCc2nc3sc(C#N)c(N)c3cc2C1)C(C)(C)C (stereo not drawn) [Example 29],> 10000
21,"CC(C)(C)[C@@H]1CCc2nc3sc(C(=O)N[C@H](CN)c4cccc(NC(=O)c5ccco5)c4)cc3cc2C1 [Example 262, 6-tert-Butyl-5,6,7,8-tetrahydrothieno[2,3-b]quinoline-2-carboxylic acid (2-amino-1-{3-[(furan-2-carbonyl)amino]phenyl}ethyl)amide]",< 100
